Where “and” joins values, the source holds several entries; their conditions need not be identical. Identical values can stand only once.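 Each compound was tested at five concentrations against cells in 96-well plates for 48 hours. GI50 = concentration required for 50% inhibition of growth. TGI marks complete inhibition of growth.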
Tests used:
Experiment in all cases: DTP human tumour cell line panel, 48 h
SF-268 CNS = tested on: SF-268 CNS
HCT-15 colon = tested on: HCT-15 colon
OVCAR-3 ovarian = tested on: OVCAR-3 ovarian
MDA-MB-435 = tested on: MDA-MB-435
HOP-92 NSCLC = tested on: HOP-92 NSCLC
TK-10 renal = tested on: TK-10 renal
SK-MEL-2 melanoma = tested on: SK-MEL-2 melanoma
EKVX NSCLC = tested on: EKVX NSCLC
SF-295 CNS = tested on: SF-295 CNS
A549 NSCLC = tested on: A549 NSCLC
786-0 renal = tested on: 786-0 renal
NCI-H522 lung = tested on: NCI-H522 lung
HT29 colon = tested on: HT29 colon
SK-MEL-28 melanoma = tested on: SK-MEL-28 melanoma
M14 melanoma = tested on: M14 melanoma
CAKI-1 renal = tested on: CAKI-1 renal
K-562 leukemia = tested on: K-562 leukemia
SNB-19 CNS = tested on: SNB-19 CNS
BT-549 breast = tested on: BT-549 breast
UACC-257 melanoma = tested on: UACC-257 melanoma
HOP-62 NSCLC = tested on: HOP-62 NSCLC
HL-60(TB) leukemia = tested on: HL-60(TB) leukemia
RPMI-8226 leukemia = tested on: RPMI-8226 leukemia
LOX IMVI melanoma = tested on: LOX IMVI melanoma
RXF 393 renal = tested on: RXF 393 renal
CCRF-CEM leukemia = tested on: CCRF-CEM leukemia
NCI-H23 lung = tested on: NCI-H23 lung
DU-145 prostate = tested on: DU-145 prostate
SK-OV-3 ovarian = tested on: SK-OV-3 ovarian
NCI-H226 lung = tested on: NCI-H226 lung
MCF7 breast = tested on: MCF7 breast
HCC-2998 colon = tested on: HCC-2998 colon
ACHN renal = tested on: ACHN renal
SK-MEL-5 melanoma = tested on: SK-MEL-5 melanoma
OVCAR-4 ovarian = tested on: OVCAR-4 ovarian
IGROV1 ovarian = tested on: IGROV1 ovarian
MALME-3M melanoma = tested on: MALME-3M melanoma
OVCAR-8 ovarian = tested on: OVCAR-8 ovarian
UACC-62 melanoma = tested on: UACC-62 melanoma
SN12C renal = tested on: SN12C renal
SF-539 CNS = tested on: SF-539 CNS
SR leukemia = tested on: SR leukemia
SW-620 colon = tested on: SW-620 colon
SNB-75 CNS = tested on: SNB-75 CNS
U251 CNS = tested on: U251 CNS
MOLT-4 leukemia = tested on: MOLT-4 leukemia
PC-3 prostate = tested on: PC-3 prostate
A498 renal = tested on: A498 renal
NCI/ADR-RES ovarian = tested on: NCI/ADR-RES ovarian
OVCAR-5 ovarian = tested on: OVCAR-5 ovarian
T-47D breast = tested on: T-47D breast
MDA-MB-231 breast = tested on: MDA-MB-231 breast
COLO 205 colon = tested on: COLO 205 colon
HS 578T breast = tested on: HS 578T breast
KM12 colon = tested on: KM12 colon
NCI-H460 lung = tested on: NCI-H460 lung
UO-31 renal = tested on: UO-31 renal
HCT-116 colon = tested on: HCT-116 colon

SMILES: Cn1cc(-c2cc3c(Nc4ccc(CC(=O)Nc5cc(C(C)(C)C)on5)cc4)ncnc3[nH]2)cn1
- GI50 (SF-268 CNS): 444 nM and 348 nM
- TGI (SF-268 CNS): 1670 nM and 1180 nM
- GI50 (HCT-15 colon): 3260 nM and 2910 nM
- TGI (HCT-15 colon): 13800 nM and 10300 nM
- GI50 (OVCAR-3 ovarian): 496 nM and 360 nM
- TGI (OVCAR-3 ovarian): 2480 nM and 2540 nM
- GI50 (MDA-MB-435): 845 nM and 944 nM
- TGI (MDA-MB-435): 2950 nM and 4290 nM
- GI50 (HOP-92 NSCLC): 1420 nM and 536 nM
- TGI (HOP-92 NSCLC): 11800 nM and 4390 nM
- GI50 (TK-10 renal): 2740 nM and 2440 nM
- TGI (TK-10 renal): 8910 nM and 7400 nM
- GI50 (SK-MEL-2 melanoma): 835 nM and 943 nM
- TGI (SK-MEL-2 melanoma): 2800 nM and 3730 nM
- GI50 (EKVX NSCLC): 1660 nM and 1810 nM
- TGI (EKVX NSCLC): 5010 nM and 5310 nM
- GI50 (SF-295 CNS): 1640 nM and 1320 nM
- TGI (SF-295 CNS): 6210 nM and 6200 nM
- GI50 (A549 NSCLC): 2420 nM and 2840 nM
- TGI (A549 NSCLC): 8760 nM and 10500 nM
- GI50 (786-0 renal): 995 nM and 536 nM
- TGI (786-0 renal): 5050 nM and 4710 nM
- GI50 (NCI-H522 lung): 469 nM and 528 nM
- TGI (NCI-H522 lung): 3330 nM and 4480 nM
- GI50 (HT29 colon): 1100 nM and 1110 nM
- TGI (HT29 colon): 6950 nM and 9630 nM
- GI50 (SK-MEL-28 melanoma): 804 nM and 508 nM
- TGI (SK-MEL-28 melanoma): 3580 nM and 3000 nM
- GI50 (M14 melanoma): 961 nM and 690 nM
- TGI (M14 melanoma): 3020 nM and 2300 nM
- GI50 (CAKI-1 renal): 1250 nM and 1100 nM
- TGI (CAKI-1 renal): 7090 nM and 6930 nM
- GI50 (K-562 leukemia): 1210 nM and 596 nM
- TGI (K-562 leukemia): > 100000 nM and 11200 nM
- GI50 (SNB-19 CNS): 492 nM and 399 nM
- TGI (SNB-19 CNS): 5310 nM and 8400 nM
- GI50 (BT-549 breast): 925 nM and 538 nM
- TGI (BT-549 breast): 4120 nM and 3350 nM
- GI50 (UACC-257 melanoma): 2040 nM
- TGI (UACC-257 melanoma): 6960 nM and 6990 nM
- GI50 (HOP-62 NSCLC): 876 nM and 444 nM
- TGI (HOP-62 NSCLC): 4970 nM and 4580 nM
- GI50 (HL-60(TB) leukemia): 1980 nM and 1580 nM
- TGI (HL-60(TB) leukemia): 6630 nM and 5470 nM
- GI50 (RPMI-8226 leukemia): 2030 nM and 1070 nM
- TGI (RPMI-8226 leukemia): 5410 nM and 3800 nM
- GI50 (LOX IMVI melanoma): 870 nM and 548 nM
- TGI (LOX IMVI melanoma): 6310 nM and 3630 nM
- GI50 (RXF 393 renal): 723 nM and 461 nM
- TGI (RXF 393 renal): 1880 nM and 1480 nM
- GI50 (CCRF-CEM leukemia): 395 nM and 302 nM
- GI50 (NCI-H23 lung): 811 nM and 449 nM
- TGI (NCI-H23 lung): 3490 nM and 2510 nM
- GI50 (DU-145 prostate): 830 nM and 491 nM
- TGI (DU-145 prostate): 3840 nM and 2890 nM
- GI50 (SK-OV-3 ovarian): 1430 nM and 2020 nM
- TGI (SK-OV-3 ovarian): 6010 nM and 6840 nM
- GI50 (NCI-H226 lung): 899 nM and 540 nM
- TGI (NCI-H226 lung): 4180 nM and 4100 nM
- GI50 (MCF7 breast): 352 nM and 259 nM
- TGI (MCF7 breast): 10300 nM and 4010 nM
- GI50 (HCC-2998 colon): 1340 nM and 652 nM
- TGI (HCC-2998 colon): 7500 nM and 4820 nM
- GI50 (ACHN renal): 1940 nM and 1710 nM
- TGI (ACHN renal): 7360 nM and 6400 nM
- GI50 (SK-MEL-5 melanoma): 1400 nM and 1310 nM
- TGI (SK-MEL-5 melanoma): 4770 nM and 4430 nM
- GI50 (OVCAR-4 ovarian): 592 nM and 547 nM
- TGI (OVCAR-4 ovarian): 4000 nM and 5170 nM
- GI50 (IGROV1 ovarian): 1100 nM and 948 nM
- TGI (IGROV1 ovarian): 5840 nM and 5240 nM
- GI50 (MALME-3M melanoma): 615 nM and 354 nM
- TGI (MALME-3M melanoma): 2360 nM and 1750 nM
- GI50 (OVCAR-8 ovarian): 893 nM and 490 nM
- TGI (OVCAR-8 ovarian): 5060 nM and 4540 nM
- GI50 (UACC-62 melanoma): 583 nM and 455 nM
- TGI (UACC-62 melanoma): 1710 nM and 1900 nM
- GI50 (SN12C renal): 671 nM and 471 nM
- TGI (SN12C renal): 4050 nM and 4150 nM
- GI50 (SF-539 CNS): 425 nM and 265 nM
- TGI (SF-539 CNS): 1700 nM and 1630 nM
- GI50 (SR leukemia): 328 nM and 324 nM
- TGI (SR leukemia): > 53700 nM
- GI50 (SW-620 colon): 871 nM and 654 nM
- TGI (SW-620 colon): 2750 nM and 5730 nM
- GI50 (SNB-75 CNS): 655 nM and 133 nM
- TGI (SNB-75 CNS): 1780 nM and 2470 nM
- GI50 (U251 CNS): 586 nM and 380 nM
- TGI (U251 CNS): 5840 nM and 6410 nM
- GI50 (MOLT-4 leukemia): 401 nM and 324 nM
- TGI (MOLT-4 leukemia): 11400 nM and 2380 nM
- GI50 (PC-3 prostate): 1590 nM and 612 nM
- TGI (PC-3 prostate): 11300 nM and 3580 nM
- GI50 (A498 renal): 692 nM and 1070 nM
- TGI (A498 renal): 1810 nM and 3030 nM
- GI50 (NCI/ADR-RES ovarian): 16100 nM and 13100 nM
- TGI (NCI/ADR-RES ovarian): > 100000 nM
- GI50 (OVCAR-5 ovarian): 1300 nM and 1080 nM
- TGI (OVCAR-5 ovarian): 7180 nM and 6620 nM
- GI50 (T-47D breast): 315 nM and 289 nM
- TGI (T-47D breast): 6120 nM and 2190 nM
- GI50 (MDA-MB-231 breast): 797 nM and 786 nM
- TGI (MDA-MB-231 breast): 5170 nM and 8350 nM
- GI50 (COLO 205 colon): 364 nM and 354 nM
- TGI (COLO 205 colon): 1210 nM and 1650 nM
- GI50 (HS 578T breast): 420 nM and 276 nM
- TGI (HS 578T breast): 1720 nM and 1560 nM
- GI50 (KM12 colon): 59.6 nM and 46.8 nM
- TGI (KM12 colon): 2390 nM and 1820 nM
- GI50 (NCI-H460 lung): 1040 nM and 1260 nM
- TGI (NCI-H460 lung): 3650 nM and 6220 nM
- GI50 (UO-31 renal): 2430 nM and 2330 nM
- TGI (UO-31 renal): 7040 nM and 6580 nM
- GI50 (HCT-116 colon): 680 nM and 337 nM
- TGI (HCT-116 colon): 4860 nM and 1990 nM
